Where a name gives a salt, the structure may show the parent alone.
Columns and labels:
[1] = molecular target: human GSK-3β (Homo sapiens, UniProt P49841); assay: Assay (I): inhibition of GSK-3, 33P-ATP phosphorylation of a glycogen synthase derived substrate; type: biochemical; settings: 35 μM substrate, 0.1 mM 33P-labeled ATP, 60 min at room temperature
Procedure: Inhibition of GSK-3 by a test compound was evaluated using human GSK-3β and a glycogen synthase derived substrate with the following amino acid sequence:
In brief, GSK-3β was incubated with 35 μM substrate and varying concentrations of test compound in a buffer containing 0.1 mM ^33P-labeled ATP, 10 mM magnesium acetate, 8 mM MOPS pH 7.0, 0.2 mM EDTA, 0.1% dithiothreitol and 0.03% Triton-X100 for 60 min at room temperature. The reaction was performed using 96-well plates. The reaction was terminated by adding 13 μl 2% phosphoric acid to each well, and 10 μl was spotted onto P30 paper which was washed 4 times in 0.5% phosphoric acid to remove non-incorporated ^33P-labeled ATP. After drying the radioactivity was counted in a Wallac. Dose-response profiles were generated, and the IC50 value for inhibition of GSK-3 by the test compound was calculated using a four-parameter logistic function.

[2] = tested on: cyclin-dependent kinases (CDKs); settings: at the tested concentration; Table I of WO 99/21845; cited from earlier work

Sequence of human GSK-3β (P49841 whole entry): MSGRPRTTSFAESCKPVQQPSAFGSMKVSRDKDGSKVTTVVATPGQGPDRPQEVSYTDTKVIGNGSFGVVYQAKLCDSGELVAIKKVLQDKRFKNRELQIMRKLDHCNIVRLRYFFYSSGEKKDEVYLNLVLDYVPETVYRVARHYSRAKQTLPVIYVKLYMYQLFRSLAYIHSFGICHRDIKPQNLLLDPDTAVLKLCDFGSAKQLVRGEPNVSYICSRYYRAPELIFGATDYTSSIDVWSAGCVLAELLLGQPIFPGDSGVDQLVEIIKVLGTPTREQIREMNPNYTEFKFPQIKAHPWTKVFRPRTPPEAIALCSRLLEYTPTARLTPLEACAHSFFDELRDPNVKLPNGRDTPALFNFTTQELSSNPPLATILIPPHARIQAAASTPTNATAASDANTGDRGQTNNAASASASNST

melting point [°C]	IC50 [1] [nM]	SMILES	CDK inhibition [2]
210 to 212	–	CN1CCN(CCCNc2nc(N)c(C(=O)c3ccc(Cl)s3)s2)CC1 (as salt: hydrochloride) [Example 8, {4-Amino-2-[3-(4-methylpiperazin-1-yl)propylamino]thiazol-5-yl}-(5-chlorothiophen-2-yl)methanone]	–
99 to 100	–	CN1CCN(CCCNc2nc(N)c(C(=O)c3cccc(OCc4ccccc4)c3)s2)CC1 (as salt: hydrochloride) [Example 10, {4-Amino-2-[3-(4-methylpiperazin-1-yl)propylamino]thiazol-5-yl}-(3-benzyloxyphenyl)methanone]	–
–	< 1000	CC(C)(C)OC(=O)NCCCNc1nc(N)c(C(=O)c2ccc(Cl)s2)s1 [Example 3, 3-[4-Amino-5-(5-chlorothiophene-2-carbonyl)thiazol-2-ylamino]propylcarbamic acid tert-butyl ester]	–
–	< 1000	CC(C)(C)OC(=O)N1CCC(Nc2nc(N)c(C(=O)c3cccc(OCc4ccccc4)c3)s2)CC1 [Example 5, 4-[4-Amino-5-(3-benzyloxybenzoyl)thiazol-2-ylamino]piperidine-1-carboxylic acid tert-butyl ester]	–
–	< 1000	CC(C)(C)OC(=O)NCCCNc1nc(N)c(C(=O)c2cccc(OCc3ccccc3)c2)s1 [Example 6, {3-[4-Amino-5-(3-benzyloxybenzoyl)thiazol-2-ylamino]propyl}carbamic acid tert-butyl ester]	–
224 to 225	< 1000	Nc1nc(NCCCN2CCCC2=O)sc1C(=O)c1ccc(Cl)s1 [Example 7, 1-{3-[4-Amino-5-(5-chlorothiophene-2-carbonyl)thiazol-2-ylamino]propyl}pyrrolidin-2-one]	–
184	< 1000	Nc1nc(NCCCN2CCCC2=O)sc1C(=O)c1cccc(OCc2ccccc2)c1 [Example 9]	–
–	< 1000	CN1CCN(CCCNc2nc(N)c(C(=O)c3cccc(OCc4ccccc4)c3)s2)CC1 [Example 10, {4-Amino-2-[3-(4-methylpiperazin-1-yl)propylamino]thiazol-5-yl}-(3-benzyloxyphenyl)methanone]	–
–	–	Nc1nc(NCCN2CCCCC2)sc1C(=O)c1ccc(F)cc1 [I(6)]	No CDK inhibition was observed

— US20040210063A1 (priority 2001, published 2004)
